One may read the NOAEL as the highest tested level that showed no adverse finding.

“Also recorded” adds a separate entry of the source.

Series [1] relates to healthy, drug-free male volunteers. Put plainly: Safety and tolerability of noribogaine in healthy volunteers. It is filed as in vivo, human. Here is the method:
Safety and tolerability of noribogaine were tested in the group of volunteers from Example 9. […] Safety evaluations included clinical monitoring, recording of adverse events (AEs), safety laboratory tests, vital signs, ECG telemetry from −2 h to 6 h after dosing, and 12-lead electrocardiograms (ECGs) up to 216 hours post-dosing.

Another series relates to dogs. Put plainly: Single dose (acute oral) toxicity/TK study in dogs. It is filed as in vivo, dog.
Series [2] can be described thus: Single dose (acute oral) toxicity/TK study in dogs. It is filed as in vivo, dog. Conditions: dog, in vivo; single oral dose.

Turning to `CC[C@H]1CC2C[C@H]3c4[nH]c5ccc(O)cc5c4CCN(C2)C13` [noribogaine], the figures for the Adverse events reported result in series [1] (3 mg dose group), in series [1] (10 mg dose group) and in series [1] (30 mg dose group) were “five adverse events were reported by two subjects”, “one adverse event was reported by single subjects” and “one adverse event was reported by single subjects”, respectively. Further, the “Single increase in QTcF (one subject)” value in series [1] (10 mg, 24 hours post-dosing) was > 60 ms. The “Oximetry, capnography, respiratory rate” value in series [1] (3-60 mg single oral dose) was “no changes in oximetry or capnography, or changes in respiratory rate”. Also, the “QTcF values >500 msec” value in series [1] (3-60 mg single oral dose) was “no QTcF values>500 msec at any time”. Further, in series [1] (3-60 mg single oral dose), the “Vital signs and safety laboratory tests” value is reported as “no changes in vital signs or safety laboratory tests of note”. The “Adverse events, Mild” value is reported as “Back pain; also recorded: Dizziness; also recorded: Epistaxis; also recorded: Headache” in series [1] (Dose 3 mg), “Headache” in series [1] (Dose 10 mg) and “Headache” in series [1] (Dose 30 mg). The “Adverse events, Moderate” value in series [1] (Dose 3 mg) is given as “Headache”. The “Findings at the NOAEL dose” value in the series on dogs (5 mg/kg) is reported as “only transient reduction in food consumption in one dog”. In addition, the Clinical signs result with dogs (10 mg/kg) is “Convulsions and other CNS-related clinical signs”. Moreover, the “Onset of clinical signs after dosing” value in the series with dogs (10 mg/kg) turned out to be 20 min. Also, the Mortality entry in the series with dogs (oral doses of 5 (n=2) or 10 (n=2) mg/kg) is recorded as “no mortality occurred”. This compound also had an NOAEL in series [2] of 5 mg/kg.
